The source of these data is patent US10131645B2, “Benzofurans substituted with primary benzamide as HCV inhibitors” (BRISTOL-MYERS SQUIBB COMPANY, priority 2015, dated 2018).

The structures appear in SMILES notation. A value given as a limit tells only on which side of the number the result lay.

Broadly, the EC50 is the concentration that produces a half-maximal response.

One series concerns genotype 1b (Con-1) HCV replicon. The experiment in a line: HCV Replicon Luciferase Assay. The format is cell-based. As to conditions: Hepatitis C virus, 72 h; Huh-7 cells, genotype 1b replicon, Renilla luciferase, 3 days incubation; read-out: EC50 1b (class). As to the method:
The cell lines used to evaluate compounds consist of a human hepatocyte derived cell line (Huh-7) that constitutively expresses a genotype 1b (Con-1) HCV replicon or a genotype 1b (Con-1) HCV replicon with an asparagine replacing the cysteine at amino acid 316, or a genotype 2a (JFH-1) replicon, containing a Renilla luciferase reporter gene. These cells were maintained in Dulbecco's modified Eagle medium (DMEM) containing 10% FBS, 100 U/mL penicillin/streptomycin and 1.0 mg/mL G418.
To evaluate compound efficacy, titrated compounds were transferred to sterile 384-well tissue culture treated plates, and the plates were seeded with HCV replicon cells (50 μL at a density of 2.4×10^3 cells/well) in DMEM containing 4% FBS (final DMSO concentration at 0.5%). After 3 days incubation at 37° C., cells were analyzed for Renilla Luciferase activity using the EnduRen substrate (Promega cat #E6485) according to the manufacturer's directions. Briefly, the EnduRen substrate was diluted in DMEM and then added to the plates to a final concentration of 7.5 μM. The plates were incubated for at least 1 h at 37° C. then read on a Viewlux Imager (PerkinElmer) using a luminescence program. The 50% effective concentration (EC50) was calculated using the four-parameter logistic formula noted above.
`CCNc1cc2oc(-c3ccc(F)cc3)c(C(=O)NC)c2cc1-c1cccc(C(=O)NCC(F)(F)c2ccccn2)c1` [Compound 1002]: the 50% effective concentration (EC50) is less than 0.1 µM.
`CCNc1cc2oc(-c3ccc(F)cc3)c(C(=O)NC)c2cc1-c1cccc(C(=O)NCC(C)(C)c2ccccc2)c1` [Compound 1003]: the concentration giving a half-maximal response (EC50) was less than 0.1 µM.
As to `CCNc1cc2oc(-c3ccc(F)cc3)c(C(=O)NC)c2cc1-c1cccc(C(=O)NCC(C)(C)c2ccc(Cl)cc2)c1` [Compound 1004], the concentration for a half-maximal effect (EC50) is less than 0.1 µM.
Turning to `CCNc1cc2oc(-c3ccc(F)cc3)c(C(=O)NC)c2cc1-c1cccc(C(=O)NC(C)(C(=O)OC)C(F)(F)F)c1` (centres unmarked) [Compound 1005], the 50% effective concentration (EC50) was less than 0.1 µM.
The same measure, in the same setting: to `CCNc1cc2oc(-c3ccc(F)cc3)c(C(=O)NC)c2cc1-c1cccc(C(=O)NC(C#N)C(=O)NC)c1` (centres unmarked) [Compound 1007] belongs less than 0.1 µM; to `CCNc1cc2oc(-c3ccc(F)cc3)c(C(=O)NC)c2cc1-c1cccc(C(=O)NC(C#N)C(N)=O)c1` (centres unmarked) [Compound 1008], less than 0.1 µM; to `CCNc1cc2oc(-c3ccc(F)cc3)c(C(=O)NC)c2cc1-c1cccc(C(=O)NC[C@H](F)CO)c1` [Compound 1009], less than 0.1 µM.
For the compound `CCNc1cc2oc(-c3ccc(F)cc3)c(C(=O)NC)c2cc1-c1cccc(C(=O)NC(C)(C#N)C2CC2)c1` (centres unmarked) [Compound 1010], the EC50 is less than 0.1 µM.
On to `CCNc1cc2oc(-c3ccc(F)cc3)c(C(=O)NC)c2cc1-c1cccc(C(=O)NC(C(=O)OC)C(F)(F)F)c1` (centres unmarked) [Compound 1012], for which the half-maximal effective concentration (EC50) is 0.1 to 1 µM.
Same read-out and setting: to `CCN(c1cc2oc(-c3ccc(F)cc3)c(C(=O)NC)c2cc1-c1cccc(C(=O)NC(c2ccccc2)C(F)(F)F)c1)S(C)(=O)=O` (centres unmarked) [Compound 2001] belongs less than 0.1 µM.
Same read-out and setting: to `CCN(c1cc2oc(-c3ccc(F)cc3)c(C(=O)NC)c2cc1-c1cccc(C(=O)NC(c2ccccn2)C(F)(F)F)c1)S(C)(=O)=O` (centres unmarked) [Compound 2002] belongs less than 0.1 µM; to `CCN(c1cc2oc(-c3ccc(F)cc3)c(C(=O)NC)c2cc1-c1cccc(C(=O)NC(C2CC2)C(F)(F)F)c1)S(C)(=O)=O` (centres unmarked) [Compound 2003], less than 0.1 µM.
For the compound `CCN(c1cc2oc(-c3ccc(F)cc3)c(C(=O)NC)c2cc1-c1cccc(C(=O)NC(C(=O)OC)C(F)(F)F)c1)S(C)(=O)=O` (centres unmarked) [Compound 2005], the concentration for a half-maximal effect (EC50) is 0.1 to 1 µM.
For `CCN(c1cc2oc(-c3ccc(F)cc3)c(C(=O)NC)c2cc1-c1cccc(C(=O)NC(C#N)c2ccccc2)c1)S(C)(=O)=O` (centres unmarked) [Compound 2006], the EC50 was less than 0.1 µM.
As for `CCN(c1cc2oc(-c3ccc(F)cc3)c(C(=O)NC)c2cc1-c1cccc(C(=O)NC(C(N)=O)c2ccccc2)c1)S(C)(=O)=O` (centres unmarked) [Compound 2007], the EC50 lay within 0.1 to 1 µM.
For `CCOc1cc(C(C#N)NC(=O)c2cccc(-c3cc4c(C(=O)NC)c(-c5ccc(F)cc5)oc4cc3N(CC)S(C)(=O)=O)c2)ccc1OC(C)C` (centres unmarked) [Compound 2008], the concentration for a half-maximal effect (EC50) is less than 0.1 µM.
Still for that read-out and setting: the same measure for `CNC(=O)c1c(-c2ccc(F)cc2)oc2cc(N(CC3CC3)S(C)(=O)=O)c(-c3cccc(C(=O)NC(C)(C#N)C4CC4)c3)cc12` (centres unmarked) [Compound 3001]: less than 0.1 µM; for `CNC(=O)c1c(-c2ccc(F)cc2)oc2cc(N(CCF)S(C)(=O)=O)c(-c3cccc(C(=O)N[C@H](COC)C4CC4)c3)cc12` [Compound 4001]: less than 0.1 µM; for `CNC(=O)c1c(-c2ccc(F)cc2)oc2cc(N(CCF)S(C)(=O)=O)c(-c3cccc(C(=O)N[C@@H](COC)C4CC4)c3)cc12` [Compound 4002]: less than 0.1 µM.
`CNC(=O)c1c(-c2ccc(F)cc2)oc2cc(N(CCF)S(C)(=O)=O)c(-c3cccc(C(=O)N[C@@H](CO)C4CC4)c3)cc12` [Compound 4003]: the EC50 is less than 0.1 µM.
Same read-out and setting: to `CNC(=O)c1c(-c2ccc(F)cc2)oc2cc(N(CCCF)S(C)(=O)=O)c(-c3cccc(C(=O)NC(c4ccccn4)C(F)(F)F)c3)cc12` (centres unmarked) [Compound 5002] belongs less than 0.1 µM; to `CNC(=O)c1c(-c2ccc(F)cc2)oc2cc(N(CCCF)S(C)(=O)=O)c(-c3cccc(C(=O)NC(C)(C#N)C4CC4)c3)cc12` (centres unmarked) [Compound 5003], less than 0.1 µM; to `CCN(CC)c1cc2oc(-c3ccc(F)cc3)c(C(=O)NC)c2cc1-c1cccc(C(=O)NC(C(N)=O)c2ccccc2)c1` (centres unmarked) [Compound 6001], less than 0.1 µM.
Take `CCN(CC)c1cc2oc(-c3ccc(F)cc3)c(C(=O)NC)c2cc1-c1cccc(C(=O)N[C@@H](CO)C(N)=O)c1` [Compound 6002]: the EC50 is 0.1 to 1 µM.
Turning to `CCN(CC)c1cc2oc(-c3ccc(F)cc3)c(C(=O)NC)c2cc1-c1cccc(C(=O)NCC(C(=O)O)C(F)(F)F)c1` (centres unmarked) [Compound 6005], the EC50 is 0.1 to 1 µM.
On the same count and under the same terms, the same measure for `CCN(C(=O)C(F)(F)F)c1cc2oc(-c3ccc(F)cc3)c(C(=O)NC)c2cc1-c1cccc(C(=O)NC(C(=O)OC)C(F)(F)F)c1` (centres unmarked) [Compound 7001]: 0.1 to 1 µM.

Staying with this series, now noted: Hepatitis C virus, 72 h; Huh-7 cells, genotype 1b replicon, Renilla luciferase, 3 days incubation; read-out: EC50 (uM) 1b.
With `CCNc1cc2oc(-c3ccc(F)cc3)c(C(=O)NC)c2cc1-c1cccc(C(=O)NCC(F)(F)c2ccccc2)c1` [Compound 1001], the EC50 is 0.0486 µM.
In the case of `CCNc1cc2oc(-c3ccc(F)cc3)c(C(=O)NC)c2cc1-c1cccc(C(=O)NC(C#N)c2ccccc2)c1` (centres unmarked) [Compound 1006], the concentration giving a half-maximal response (EC50) was 0.0162 µM.
Still for that read-out and setting: the same measure for `CCNc1cc2oc(-c3ccc(F)cc3)c(C(=O)NC)c2cc1-c1cccc(C(=O)NC(C2CC2)C(F)(F)F)c1` (centres unmarked) [Compound 1011]: 0.0128 µM; for `CCN(c1cc2oc(-c3ccc(F)cc3)c(C(=O)NC)c2cc1-c1cccc(C(=O)NC(c2cccnc2)C(F)(F)F)c1)S(C)(=O)=O` (centres unmarked) [Compound 2004]: 0.0096 µM.
Take `CCN(c1cc2oc(-c3ccc(F)cc3)c(C(=O)NC)c2cc1-c1cccc(C(=O)NC(C)(C#N)C2CC2)c1)S(C)(=O)=O` (centres unmarked) [Compound 2009]: the EC50 was determined as 0.0032 µM.
As for `CNC(=O)c1c(-c2ccc(F)cc2)oc2cc(N(CCCF)S(C)(=O)=O)c(-c3cccc(C(=O)NC(C4CC4)C(F)(F)F)c3)cc12` (centres unmarked) [Compound 5001], the concentration giving a half-maximal response (EC50) came to 0.0229 µM.
The same measure, in the same setting: to `CCN(CC)c1cc2oc(-c3ccc(F)cc3)c(C(=O)NC)c2cc1-c1cccc(C(=O)N[C@]2(C(=O)O)C[C@@H]2CO)c1` [Compound 6004] belongs 0.946 µM.

A further series relates to HCV.
Assay: not given
Particulars: extended dosing of the combination regimens; cited from earlier work.
As for `CNC(=O)c1c(-c2ccc(F)cc2)oc2cc(N(CCO)S(C)(=O)=O)c(C3CC3)cc12` [HCV-796], the hepatic toxicity result is “hepatic toxicity observed”.

The series is the same for the next values; noted with them: patients; single agent transient, more robust with interferon and ribavirin; cited from earlier work.
Regarding `CNC(=O)c1c(-c2ccc(F)cc2)oc2cc(N(CCO)S(C)(=O)=O)c(C3CC3)cc12` [HCV-796], the “HCV RNA levels in patients” value is reported as “reduce HCV RNA levels”.
